In PubChem BioAssay (NCI) one finds TGI data, which are given here for one compound.

Test systems include SF-268 CNS; IGROV1 ovarian; SN12C renal; NCI-H226 lung; SK-MEL-2 melanoma; HCT-15 colon; HCT-116 colon; RXF 393 renal; OVCAR-5 ovarian; UACC-62 melanoma.
What all share (test): NCI tumour cell line growth inhibition, 48 h

The structures appear in SMILES notation.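 Growth conditions: 96-well plates. Treatment: test compound, 48 hours, 5 concentrations. Analysis: linear interpolation between bracketing concentrations; unreached endpoints set to highest concentration. TGI is the concentration that stops growth completely.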 Some results are limits rather than exact numbers.

In the case of `COc1cc(N(CCC#N)CCC#N)ccc1/C=N\NC(=O)c1ccc(C)cc1`, the TGI was greater than 100 µM in the assay with SF-268 CNS; greater than 100 µM in the assay on IGROV1 ovarian; greater than 100 µM in the assay on SN12C renal; greater than 100 µM in the assay on NCI-H226 lung; 32.6 µM in the assay with SK-MEL-2 melanoma; greater than 100 µM in the assay on HCT-15 colon. Moreover, the TGI in the assay with HCT-116 colon, in the assay with RXF 393 renal, in the assay on OVCAR-5 ovarian and with UACC-62 melanoma was greater than 100 µM throughout.
